{"source": "patent US20250180581A1", "about": "“COMPOSITIONS AND METHODS FOR CHARACTERIZING AND TREATING PSYCHIATRIC ILLNESS” (Trustees of Tufts College, priority 2023, published 2025)", "key": {"[1]": {"system": "mice subjected to chronic unpredictable stress (CUS)", "experiment": "Chronic unpredictable stress (CUS) in mice, behavioral state (learned helplessness, social interaction, anhedonia)", "assay_type": "in vivo", "conditions": "exogenous allopregnanolone treatment after 3 weeks CUS; FIGS. 3B-3D", "source_text": "In each graph, from left to right, the first bar is control, second bar is mice following CUS, and the third bar is mice following CUS and with exogenous allopregnanolone treatment.\nDecreased expression of 5α-reductase 1 and 2 is associated with chronic stress, a major risk factor for depression. […] Reduced endogenous neurosteroids impaired the affective state."}, "women with PPD": {"system": "women with PPD", "conditions": "zuranolone treatment; cited from earlier work"}}}
{"compound": "CC(=O)[C@H]1CC[C@H]2[C@@H]3CC[C@H]4C[C@H](O)CC[C@]4(C)[C@H]3CC[C@]12C", "note": "[allopregnanolone]", "values": [{"measurement": "behavioral state of the mice following CUS (learned helplessness, social interaction, anhedonia)", "setting": "[1]", "result": "restored the behavioral state"}]}
{"compound": "C[C@@]1(O)CC[C@H]2[C@H](CC[C@@H]3[C@@H]2CC[C@]2(C)[C@@H](C(=O)Cn4cc(C#N)cn4)CC[C@@H]32)C1", "note": "[zuranolone]", "values": [{"measurement": "women with PPD exhibiting a rapid antidepressant response", "setting": "women with PPD", "result": 57, "unit": "%"}]}
